This is an account of results in ChEMBL document CHEMBL1629573, “OPT-80 eliminates Clostridium difficile and is sparing of bacteroides species during treatment of C. difficile infection” (2009).

Values after ≈ are worked out from the molar mass of the structure shown. Active and inactive are the calls of the source. No cut-off for these calls is given here. Bounds are passed on as bounds.

In experiment [1] the test system is Clostridioides difficile. Briefly: Antimicrobial activity against Clostridium difficile obtained from patient with Clostridium difficile infection assessed as bacterial count per gram of wet stool at 50 mg/kg, po BID measured on day 4 by the two-tailed Wilcoxon matched-pair, signed-rank test. Conditions: Feces. It is filed as functional, organism-based. Also on record: dose 50 mg/kg.

Experiment [2] concerns Bacteroides. Briefly: Antimicrobial activity against Bacteroides group obtained from patient with Clostridium difficile infection assessed as bacterial count per gram of wet stool at 100 mg/kg, po BID measured on day 10 by the two-tailed Wilcoxon matched-pair, signed-rank test. It is filed as functional, Feces.
The subject of experiment [3] is Clostridioides difficile. Put plainly: Antimicrobial activity against Clostridium difficile obtained from patient with Clostridium difficile infection assessed as bacterial count per gram of wet stool at 50 mg/kg, po BID measured on day 10 by the two-tailed Wilcoxon matched-pair, signed-rank test. The experiment is classed as functional, organism-based. Further details: dose 50 mg/kg. Conditions: Feces.

Experiment [4] deals with Bacteroides sp. Briefly: Antimicrobial activity against […] Bacteroides sp. It is filed as functional.
Experiment [5] concerns Clostridioides difficile. Briefly: Antimicrobial activity against Clostridium difficile obtained from patient with Clostridium difficile infection assessed as bacterial count per gram of wet stool at 200 mg/kg, po BID measured at 21 to 28 days by the two-tailed Wilcoxon matched-pair, signed-rank test. The experiment is classed as functional, Feces.
The subject of experiment [6] is Bacteroides. Briefly: Antimicrobial activity against Bacteroides group obtained from patient with Clostridium difficile infection assessed as bacterial count per gram of wet stool at 200 mg/kg, po BID measured on day 10 by the two-tailed Wilcoxon matched-pair, signed-rank test. The experiment is classed as functional, Feces.
Experiment [7] relates to Clostridioides difficile. Briefly: Antimicrobial activity against Clostridium difficile. The experiment is classed as functional.
The test system of experiment [8] is Clostridioides difficile. Briefly: Antimicrobial activity against Clostridium difficile obtained from patient with Clostridium difficile infection assessed as bacterial count per gram of wet stool at 200 mg/kg, po BID measured on day 4 by the two-tailed Wilcoxon matched-pair, signed-rank test. It is filed as functional, organism-based. Conditions: Feces. Further details: dose 200 mg/kg.

Experiment [9] relates to Clostridioides difficile. Briefly: Antimicrobial activity against Clostridium difficile obtained from patient with Clostridium difficile infection assessed as reduction in bacterial cytotoxin B in patients at 100 mg/kg, po BID measured at 21 to 28 days by the two-tailed Wilcoxon matched-pair, signed-rank test. It is filed as functional, organism-based. Further details: dose 100 mg/kg.

Experiment [10] deals with Clostridioides difficile. Put plainly: Antimicrobial activity against Clostridium difficile obtained from patient with Clostridium difficile infection assessed as bacterial count per gram of wet stool at 200 mg/kg, po BID measured on day 8 by the two-tailed Wilcoxon matched-pair, signed-rank test. The experiment is classed as functional, organism-based. Further details: dose 200 mg/kg. Conditions: Feces.

Experiment [11] has as its system Clostridioides difficile. Put plainly: Antimicrobial activity against Clostridium difficile obtained from patient with Clostridium difficile infection assessed as bacterial count per gram of wet stool at 100 mg/kg, po BID measured at 21 to 28 days by the two-tailed Wilcoxon matched-pair, signed-rank test. The experiment is classed as functional, Feces.
Experiment [12] concerns Clostridioides difficile. Briefly: Antimicrobial activity against Clostridium difficile obtained from patient with Clostridium difficile infection assessed as bacterial count per gram of wet stool at 100 mg/kg, po BID measured on day 10 by the two-tailed Wilcoxon matched-pair, signed-rank test. The note with it: Feces. It is filed as functional, organism-based. Also on record: dose 100 mg/kg.

Experiment [13] deals with Bacteroides. Put plainly: Antimicrobial activity against Bacteroides group obtained from patient with Clostridium difficile infection assessed as bacterial count per gram of wet stool at 50 mg/kg, po BID measured on day 10 by the two-tailed Wilcoxon matched-pair, signed-rank test. The experiment is classed as functional, Feces.
Experiment [14] deals with Clostridioides difficile. Put plainly: Antimicrobial activity against Clostridium difficile obtained from patient with Clostridium difficile infection assessed as bacterial count per gram of wet stool at 200 mg/kg, po BID measured on day 10 by the two-tailed Wilcoxon matched-pair, signed-rank test. Also on record: dose 200 mg/kg. It is filed as functional, organism-based. The note with it: Feces.

The subject of experiment [15] is Clostridioides difficile. Briefly: Antimicrobial activity against Clostridium difficile obtained from patient with Clostridium difficile infection assessed as bacterial count per gram of wet stool at 100 mg/kg, po BID measured on day 4 by the two-tailed Wilcoxon matched-pair, signed-rank test. The experiment is classed as functional, organism-based. Also on record: dose 100 mg/kg. Conditions: Feces.

For experiment [16], the system named is Clostridioides difficile. Put plainly: Antimicrobial activity against Clostridium difficile obtained from patient with Clostridium difficile infection assessed as bacterial count per gram of wet stool at 50 mg/kg, po BID measured at 21 to 28 days by the two-tailed Wilcoxon matched-pair, signed-rank test. The experiment is classed as functional, Feces.
Experiment [17] relates to Clostridioides difficile. Briefly: Antimicrobial activity against Clostridium difficile obtained from patient with Clostridium difficile infection assessed as reduction in bacterial cytotoxin B in patients at 200 mg/kg, po BID measured at 21 to 28 days by the two-tailed Wilcoxon matched-pair, signed-rank test. Also on record: dose 200 mg/kg. It is filed as functional, organism-based.

The test system of experiment [18] is Bacteroides sp. Put plainly: Antimicrobial activity against […] gram-negative Bacteroides sp. The experiment is classed as functional.
The subject of experiment [19] is Clostridioides difficile. Put plainly: Antimicrobial activity against Clostridium difficile obtained from patient with Clostridium difficile infection assessed as bacterial count per gram of wet stool at 125 mg/kg, po BID measured on day 10 by the two-tailed Wilcoxon matched-pair, signed-rank test. The experiment is classed as functional, organism-based. Further details: dose 125 mg/kg. Conditions: Feces.

Experiment [20] deals with Bacteroides. Briefly: Antimicrobial activity against Bacteroides group obtained from patient with Clostridium difficile infection assessed as bacterial count per gram of wet stool at 125 mg/kg, po administered QID measured on day 10 by the two-tailed Wilcoxon matched-pair, signed-rank test. It is filed as functional, Feces.
Experiment [21] concerns Clostridioides difficile. Briefly: Antimicrobial activity against Clostridium difficile obtained from patient with Clostridium difficile infection assessed as bacterial count per gram of wet stool at 125 mg/kg, po BID measured at 21 to 28 days by the two-tailed Wilcoxon matched-pair, signed-rank test. The experiment is classed as functional, Feces.
The subject of experiment [22] is Clostridioides difficile. Briefly: Antimicrobial activity against Clostridium difficile obtained from patient with Clostridium difficile infection assessed as bacterial count per gram of wet stool at 125 mg/kg, po BID measured on day 4 by the two-tailed Wilcoxon matched-pair, signed-rank test. It is filed as functional, organism-based. Further details: dose 125 mg/kg. The note with it: Feces.

The MIC90 is an inhibitory concentration at the 90% level, which refers to growth in some studies and to a panel of isolates in others. The low end stands for higher susceptibility, the high end for lower susceptibility. As to `CCc1c(Cl)c(O)c(Cl)c(O)c1C(=O)O[C@H]1[C@H](O)[C@H](OC)[C@H](OC/C2=C\C=C\C[C@H](O)/C(C)=C/[C@H](CC)[C@@H](O[C@@H]3OC(C)(C)[C@@H](OC(=O)C(C)C)[C@H](O)[C@@H]3O)/C(C)=C/C(C)=C/C[C@@H]([C@@H](C)O)OC2=O)O[C@@H]1C` [FIDAXOMICIN], the result in the experiment on Clostridioides difficile [1], in the experiment on Clostridioides difficile [3], in the experiment with Clostridioides difficile [8], with Clostridioides difficile [9], with Clostridioides difficile [10] and in the experiment on Clostridioides difficile [12] was Active. The result with Clostridioides difficile [14], with Clostridioides difficile [15] and in the experiment with Clostridioides difficile [17] was Active. Also, the log10cfu in the experiment on Bacteroides [2] is reported as 6.3; with Clostridioides difficile [5], 3.1; in the experiment on Bacteroides [6], 7.3; in the experiment on Clostridioides difficile [11], 3.6; in the experiment with Bacteroides [13], 8.2; with Clostridioides difficile [16] it was 3.9. Also, the MIC90 against Bacteroides sp. [4] is over 1020 µg/mL; in the experiment on Clostridioides difficile [7] it was 0.12 µg/mL (≈ 0.113 µM); with Bacteroides sp. [18], over 1020 µg/mL.

Regarding `CN[C@H](CC(C)C)C(=O)N[C@H]1C(=O)N[C@@H](CC(N)=O)C(=O)N[C@H]2C(=O)N[C@H]3C(=O)N[C@H](C(=O)N[C@H](C(=O)O)c4cc(O)cc(O)c4-c4cc3ccc4O)[C@H](O)c3ccc(c(Cl)c3)Oc3cc2cc(c3O[C@@H]2O[C@H](CO)[C@@H](O)[C@H](O)[C@H]2O[C@H]2C[C@](C)(N)[C@H](O)[C@H](C)O2)Oc2ccc(cc2Cl)[C@H]1O` [VANCOMYCIN], the outcome with Clostridioides difficile [19] and with Clostridioides difficile [22] was Active. In addition, the log10cfu is given as 3.6 in the experiment with Bacteroides [20] and 5.4 in the experiment with Clostridioides difficile [21].
